Reference: ChEMBL document CHEMBL1201862, “PubChem BioAssay data set” (2004)
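Step 1: Grow cells in 96-well plates. Step 2: Expose to compound for 48 hours at 5 concentrations. Step 3: Interpolate endpoints linearly; if unreached, use highest concentration. GI50 = concentration required for 50% inhibition of growth.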 Active and inactive are the calls of the source. Cut-off read from the data, not from the text of the source: active = GI50 up to about 1.1 µM and inactive = higher.

What was measured:
Test in all cases: inhibition of tumour cell growth, NCI panel, 48 h
[1] = tested on: ACHN
[2] = tested on: BT-549
[3] = tested on: HCT-116
[4] = tested on: HOP-62
[5] = tested on: HT-29
[6] = tested on: IGROV-1
[7] = tested on: MCF7
[8] = tested on: MDA-MB-231
[9] = tested on: PC-3
[10] = tested on: RPMI-8226
[11] = tested on: RXF 393
[12] = tested on: SF-268
[13] = tested on: SF-295
[14] = tested on: SK-MEL-5
[15] = tested on: SW-620
[16] = tested on: U-251
[17] = tested on: UACC-257
[18] = tested on: UO-31
[19] = tested on: A498
[20] = tested on: MDA-N

Measured: GI50

CC(C)[Si]1(C(C)C)OCC2OC3(CO)C(Oc4nc(=O)ccn43)C2O[Si](C(C)C)(C(C)C)O1 (stereo unspecified)
inactive: [1] 15.5 µM | [2] 11.6 µM | [3] 10.9 µM | [4] 15 µM | [5] 12.4 µM | [6] 17.3 µM | [7] 5.9 µM | [8] 10.2 µM | [9] 5.4 µM | [10] 5.81 µM | [11] 5.57 µM | [12] 17 µM | [13] 15 µM | [14] 13.5 µM | [15] 15.5 µM | [16] 14.2 µM | [17] 14.7 µM | [18] 13.9 µM

O=C1NC(Nc2ccccc2Cl)=N/C1=C\c1c(Cl)cccc1Cl
inactive: [19] 34.5 µM | [1] 50.5 µM | [2] 34.1 µM | [3] 22.5 µM | [4] 39.7 µM | [5] 31.6 µM | [6] 25.8 µM | [7] 28.7 µM | [20] 16.5 µM | [9] 25.1 µM | [10] 20.6 µM | [11] 23.4 µM | [12] 31.1 µM | [13] 26.5 µM | [14] 20.3 µM | [15] 37.5 µM | [16] 8.43 µM | [17] 25.4 µM | [18] 20.7 µM

CCOc1cc(NC(C)=O)ccc1C(=O)NNS(=O)(=O)c1ccc(Cl)cc1Cl
inactive: [19] > 50 µM | [1] > 50 µM | [2] > 50 µM | [3] > 50 µM | [4] > 50 µM | [5] > 50 µM | [6] > 50 µM | [7] 26.4 µM | [20] 10.6 µM | [9] > 50 µM | [10] 7.48 µM | [11] > 50 µM | [12] > 50 µM | [13] > 50 µM | [14] 14.6 µM | [15] > 50 µM | [17] > 50 µM | [18] > 50 µM

COc1ccc2c(c1)C(=O)OCCC2
inactive: [19] > 100 µM | [1] > 100 µM | [2] > 100 µM | [3] > 100 µM | [4] > 100 µM | [5] > 100 µM | [6] > 100 µM | [7] > 100 µM | [8] > 100 µM | [9] > 100 µM | [10] > 100 µM | [11] > 100 µM | [12] > 100 µM | [13] > 100 µM | [14] > 100 µM | [15] > 100 µM | [16] > 100 µM | [17] > 100 µM | [18] 26.7 µM

O=[N+]([O-])c1ccc(/N=N/c2c(O)ccc3cc(S(=O)(=O)O)ccc23)cc1
inactive: [19] > 100 µM | [1] > 100 µM | [2] > 100 µM | [3] > 100 µM | [4] > 100 µM | [5] > 100 µM | [6] > 100 µM | [8] > 100 µM | [20] > 100 µM | [9] > 100 µM | [10] > 100 µM | [11] > 100 µM | [12] > 100 µM | [13] > 100 µM | [14] > 100 µM | [15] > 100 µM | [16] > 100 µM | [17] > 100 µM | [18] > 100 µM

O=C1CC(c2ccccc2)Oc2ccccc21 (stereo unspecified) [FLAVANONE]
inactive: [19] 30.3 µM | [1] 47.6 µM | [2] 15.4 µM | [3] 30.3 µM | [4] 48.4 µM | [5] 28 µM | [6] 23.4 µM | [7] 37.8 µM | [8] 32.2 µM | [9] 38.5 µM | [10] 17.1 µM | [11] 36.2 µM | [12] 64.7 µM | [13] 58.1 µM | [14] 25.1 µM | [15] > 10 µM | [16] 38.6 µM | [17] 77.3 µM | [18] 47.6 µM

O=C(OCc1ccccc1)C1(N2CN(C3(C(=O)OCc4ccccc4)CCCC3)CN(C3(C(=O)OCc4ccccc4)CCCC3)C2)CCCC1
inactive: [1] > 10 µM | [2] > 10 µM | [3] > 10 µM | [4] > 10 µM | [5] > 10 µM | [6] > 10 µM | [7] > 10 µM | [8] > 10 µM | [20] > 10 µM | [9] > 10 µM | [10] > 10 µM | [11] > 10 µM | [12] > 10 µM | [13] > 10 µM | [14] > 10 µM | [15] > 10 µM | [16] > 10 µM | [17] > 10 µM | [18] > 10 µM

NC1=Nc2ccccc2Sc2nncn21
inactive: [19] > 100 µM | [1] > 100 µM | [2] > 100 µM | [3] > 100 µM | [4] > 100 µM | [5] > 100 µM | [6] > 100 µM | [7] > 100 µM | [8] 85.3 µM | [9] > 100 µM | [10] > 100 µM | [11] > 100 µM | [12] > 100 µM | [13] > 100 µM | [14] > 100 µM | [15] > 100 µM | [16] > 100 µM | [17] > 100 µM | [18] > 100 µM

COc1cc(S(=O)(=O)Nc2ccc(-c3csc(/N=C\C=C\c4ccccc4)n3)cc2)ccc1Cl
inactive: [19] 20.6 µM | [1] 41.2 µM | [2] 39.1 µM | [3] 46.8 µM | [4] 43 µM | [5] > 100 µM | [6] 39.4 µM | [7] 36.1 µM | [20] > 100 µM | [9] 19.9 µM | [10] 27.3 µM | [11] 16.1 µM | [12] 29.9 µM | [13] 74.5 µM | [14] 38.3 µM | [15] > 100 µM | [17] 7.76 µM | [18] 44.5 µM

NC1Cc2ccccc2OC1=O (stereo unspecified)
inactive: [1] > 100 µM | [2] > 100 µM | [4] > 100 µM | [5] > 100 µM | [6] > 100 µM | [7] > 100 µM | [8] > 100 µM | [20] > 10 µM | [9] > 100 µM | [10] > 100 µM | [11] > 100 µM | [12] > 100 µM | [13] > 100 µM | [14] > 100 µM | [15] > 100 µM | [16] > 100 µM | [17] > 100 µM | [18] > 100 µM

c1ccc(CN2CCC3(CC2)SSC2(CCN(Cc4ccccc4)CC2)S3)cc1
inactive: [1] > 100 µM | [2] > 100 µM | [3] 50.8 µM | [4] > 100 µM | [5] 17.6 µM | [6] > 100 µM | [8] > 100 µM | [20] 44.7 µM | [9] > 100 µM | [10] 20.1 µM | [13] 26.5 µM | [15] > 100 µM | [16] > 100 µM | [17] 26.7 µM | [18] > 100 µM

S=c1nc(N2CCCCC2)c2cn[nH]c2[nH]1
inactive: [19] > 100 µM | [1] 54.6 µM | [2] 26.1 µM | [3] 56.6 µM | [4] > 100 µM | [5] 41.8 µM | [6] 22.1 µM | [7] 34.6 µM | [8] > 100 µM | [9] 59.2 µM | [10] 12.2 µM | [11] 91.8 µM | [12] 78 µM | [13] 59.6 µM | [14] 1.53 µM | [15] 57 µM | [16] 60.5 µM | [17] 98.9 µM | [18] 23.9 µM

OC(c1ccc(F)cc1)C(F)(F)c1nc2ccccc2o1 (stereo unspecified)
inactive: [19] 34.4 µM | [1] > 100 µM | [2] > 100 µM | [3] > 100 µM | [4] 62.5 µM | [5] > 100 µM | [6] > 100 µM | [7] > 100 µM | [8] 83.8 µM | [9] > 100 µM | [10] 90.6 µM | [11] 39.4 µM | [12] 38.9 µM | [13] > 100 µM | [14] 50 µM | [15] > 100 µM | [16] > 100 µM | [17] 57.4 µM | [18] > 100 µM

NC1CC(Cl)c2c(Cl)sc(Cl)c21 (stereo unspecified)
inactive: [19] > 100 µM | [1] > 100 µM | [2] > 100 µM | [3] > 100 µM | [4] > 100 µM | [5] > 100 µM | [6] > 100 µM | [7] > 100 µM | [8] > 100 µM | [20] > 100 µM | [11] 14.2 µM | [12] > 100 µM | [13] > 100 µM | [14] > 100 µM | [15] > 100 µM | [16] > 100 µM | [17] > 100 µM | [18] > 100 µM

COC1=C(OC)C(=O)C(Cc2c(Cl)nc3sccn23)=C(C)C1=O
inactive: [19] 12.8 µM | [1] 12.4 µM | [2] 14.4 µM | [3] 13.6 µM | [4] 16.1 µM | [5] 14.6 µM | [6] 15.7 µM | [7] 10.2 µM | [8] 2.38 µM | [9] 14.2 µM | [10] 2.34 µM | [11] 16.1 µM | [12] 14.5 µM | [13] 12.4 µM | [14] 4.14 µM | [15] 13.7 µM | [16] 12.6 µM | [17] 3.32 µM | [18] 10.6 µM
